ChEMBL document CHEMBL1201862, “PubChem BioAssay data set” (2004)
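In this assay, cells in 96-well plates receive the compound at five concentrations for 48 hours. Endpoints are linearly interpolated between the surrounding concentrations. GI50 = concentration required for 50% inhibition of growth.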 Activity calls are given as the source filed them. Cut-off read from the data, not from the text of the source: active = GI50 up to about 1.1 µM and inactive = higher.

Columns and labels:
Test in all cases: DTP human tumour cell line panel, 48 h
[1] = system: KM12
[2] = system: 786-0
[3] = system: NCI-H522
[4] = system: UACC-62
[5] = system: EKVX
[6] = system: K562
[7] = system: SNB-78
[8] = system: OVCAR-4
[9] = system: TK-10
[10] = system: HOP-62
[11] = system: HCT-116
[12] = system: OVCAR-3
[13] = system: SF-295
[14] = system: SK-MEL-28
[15] = system: HT-29
[16] = system: NCI-H23
[17] = system: MCF7
[18] = system: PC-3
[19] = system: Hs-578T
[20] = system: NCI/ADR-RES

CCOC(OCC)c1ccc(/C=C/c2cc(OC)c(OC)c(OC)c2)cc1
GI50 [1]: > 10 µM (inactive)
GI50 [2]: 23.3 µM (inactive)
GI50 [3]: 25.2 µM (inactive)
GI50 [4]: 16.4 µM (inactive)
GI50 [5]: 33 µM (inactive)
GI50 [6]: 17.1 µM (inactive)
GI50 [7]: 27 µM (inactive)
GI50 [8]: 22.3 µM (inactive)
GI50 [9]: 33.4 µM (inactive)
GI50 [10]: 19.8 µM (inactive)
GI50 [11]: 17 µM (inactive)
GI50 [12]: 18 µM (inactive)
GI50 [13]: 19.2 µM (inactive)
GI50 [14]: 21 µM (inactive)
GI50 [15]: 16.9 µM (inactive)

COc1cccc(N2C(=O)c3c(c4[nH]c5ccccc5c4c4ccc(C(C)(C)C)cc34)C2=O)c1
GI50 [1]: > 100 µM (inactive)
GI50 [2]: > 100 µM (inactive)
GI50 [16]: > 100 µM (inactive)
GI50 [3]: > 100 µM (inactive)
GI50 [4]: > 100 µM (inactive)
GI50 [5]: > 100 µM (inactive)
GI50 [6]: > 100 µM (inactive)
GI50 [7]: > 100 µM (inactive)
GI50 [8]: > 100 µM (inactive)
GI50 [9]: > 100 µM (inactive)
GI50 [10]: > 100 µM (inactive)
GI50 [11]: > 100 µM (inactive)
GI50 [12]: > 100 µM (inactive)
GI50 [13]: > 100 µM (inactive)
GI50 [14]: > 100 µM (inactive)

Cc1cccc(C)c1NC(=O)CCC/C(CC(=O)c1ccc(F)cc1)=N\NC(=O)C(=O)NN
GI50 [1]: > 100 µM (inactive)
GI50 [2]: > 100 µM (inactive)
GI50 [16]: > 100 µM (inactive)
GI50 [4]: > 100 µM (inactive)
GI50 [5]: > 100 µM (inactive)
GI50 [6]: > 100 µM (inactive)
GI50 [7]: > 100 µM (inactive)
GI50 [8]: > 100 µM (inactive)
GI50 [9]: > 100 µM (inactive)
GI50 [11]: > 100 µM (inactive)
GI50 [12]: > 100 µM (inactive)
GI50 [13]: > 100 µM (inactive)
GI50 [14]: > 100 µM (inactive)
GI50 [15]: > 100 µM (inactive)

CCOC(=O)/C(C#N)=C(O)/C(=C\c1ccc(Br)cc1)NC(=O)c1ccccc1
GI50 [1]: > 100 µM (inactive)
GI50 [2]: > 100 µM (inactive)
GI50 [16]: > 100 µM (inactive)
GI50 [4]: > 100 µM (inactive)
GI50 [5]: > 100 µM (inactive)
GI50 [6]: > 100 µM (inactive)
GI50 [7]: > 100 µM (inactive)
GI50 [8]: > 100 µM (inactive)
GI50 [9]: > 100 µM (inactive)
GI50 [10]: > 100 µM (inactive)
GI50 [11]: 16.4 µM (inactive)
GI50 [12]: > 100 µM (inactive)
GI50 [13]: > 100 µM (inactive)
GI50 [14]: > 100 µM (inactive)
GI50 [15]: > 100 µM (inactive)

COc1ccc2occ(CCC(=O)O)c2c1
GI50 [2]: > 100 µM (inactive)
GI50 [16]: > 100 µM (inactive)
GI50 [4]: > 100 µM (inactive)
GI50 [5]: > 100 µM (inactive)
GI50 [6]: > 100 µM (inactive)
GI50 [7]: > 100 µM (inactive)
GI50 [8]: > 100 µM (inactive)
GI50 [9]: > 100 µM (inactive)
GI50 [10]: > 100 µM (inactive)
GI50 [11]: > 100 µM (inactive)
GI50 [12]: > 100 µM (inactive)
GI50 [13]: > 100 µM (inactive)
GI50 [14]: > 100 µM (inactive)
GI50 [15]: > 100 µM (inactive)

O=C(O)C1=NN=C(C(=O)O)NN1
GI50 [1]: > 100 µM (inactive)
GI50 [2]: > 100 µM (inactive)
GI50 [16]: > 100 µM (inactive)
GI50 [3]: > 100 µM (inactive)
GI50 [4]: > 100 µM (inactive)
GI50 [5]: > 100 µM (inactive)
GI50 [6]: 72.9 µM (inactive)
GI50 [7]: > 100 µM (inactive)
GI50 [8]: > 100 µM (inactive)
GI50 [9]: > 100 µM (inactive)
GI50 [11]: > 100 µM (inactive)
GI50 [12]: > 100 µM (inactive)
GI50 [13]: > 100 µM (inactive)
GI50 [14]: > 100 µM (inactive)
GI50 [15]: > 100 µM (inactive)

CCN(CC)C(=S)SCC(=O)Nc1nc2c(s1)CCCC2
GI50 [1]: > 100 µM (inactive)
GI50 [2]: 60.8 µM (inactive)
GI50 [16]: 74.1 µM (inactive)
GI50 [3]: 28 µM (inactive)
GI50 [7]: > 100 µM (inactive)
GI50 [8]: > 100 µM (inactive)
GI50 [9]: > 100 µM (inactive)
GI50 [10]: > 100 µM (inactive)
GI50 [11]: 64.3 µM (inactive)
GI50 [13]: 85.5 µM (inactive)
GI50 [14]: > 100 µM (inactive)
GI50 [15]: 59.8 µM (inactive)

OC(C/C=N/Nc1ccccc1)(C(F)(F)Cl)C(F)(F)Cl
GI50 [1]: > 10 µM (inactive)
GI50 [17]: > 10 µM (inactive)
GI50 [2]: > 10 µM (inactive)
GI50 [16]: 7.23 µM (inactive)
GI50 [3]: 4.05 µM (inactive)
GI50 [4]: > 10 µM (inactive)
GI50 [5]: > 10 µM (inactive)
GI50 [6]: 9.46 µM (inactive)
GI50 [8]: > 10 µM (inactive)
GI50 [9]: > 10 µM (inactive)
GI50 [18]: 4.05 µM (inactive)
GI50 [19]: 4.66 µM (inactive)
GI50 [10]: > 10 µM (inactive)
GI50 [11]: 5.15 µM (inactive)
GI50 [12]: 4.84 µM (inactive)
GI50 [20]: > 10 µM (inactive)
GI50 [13]: > 10 µM (inactive)
GI50 [14]: > 10 µM (inactive)
GI50 [15]: > 10 µM (inactive)

Nc1ccc(-c2nc3cc(F)ccc3s2)cc1I
GI50 [1]: 14.7 µM (inactive)
GI50 [17]: < 0.0154 µM (active)
GI50 [2]: 16.2 µM (inactive)
GI50 [16]: 0.445 µM (active)
GI50 [3]: 13.6 µM (inactive)
GI50 [4]: 19.6 µM (inactive)
GI50 [5]: 9.46 µM (inactive)
GI50 [6]: > 77.3 µM (inactive)
GI50 [8]: 0.0782 µM (active)
GI50 [9]: 0.0351 µM (active)
GI50 [18]: 24.2 µM (inactive)
GI50 [19]: 25.2 µM (inactive)
GI50 [10]: 10.2 µM (inactive)
GI50 [11]: 18.5 µM (inactive)
GI50 [12]: 0.255 µM (active)
GI50 [20]: 18.8 µM (inactive)
GI50 [13]: 14.2 µM (inactive)
GI50 [14]: 52.7 µM (inactive)
GI50 [15]: 0.889 µM (active)
